Source: the supplement of paper PMC13380429

Assays:
Conditions in all cases: 72 h
HepG2 [1] = assay: drug sensitivity score (DSS) for viability; higher = more toxic; extreme values may be limits of the assay
Calu-3 [2] = assay: as above
Caco-2 [3] = assay: as above
U2OS [4] = assay: as above
Vero E6 [5] = assay: as above
HepG2 [6] = assay: cell viability relative to DMSO; higher = less toxic
Calu-3 [7] = assay: as above
Caco-2 [8] = assay: as above
U2OS [9] = assay: as above
Vero E6 [10] = assay: as above
HepG2 [11] = assay: relative viability EC50 (midpoint between 100% and the lowest measured viability); higher = less toxic
Calu-3 [12] = assay: as above
Caco-2 [13] = assay: as above
U2OS [14] = assay: as above
Vero E6 [15] = assay: as above

Structure (SMILES)	drug sensitivity score (HepG2 [1])	drug sensitivity score (Calu-3 [2])	drug sensitivity score (Caco-2 [3])	drug sensitivity score (U2OS [4])	drug sensitivity score (Vero E6 [5])	cell viability (HepG2 [6]; 1 nM) [%]	cell viability (HepG2 [6]; 10 nM) [%]	cell viability (HepG2 [6]; 100 nM) [%]	cell viability (HepG2 [6]; 1000 nM) [%]	cell viability (HepG2 [6]; 10000 nM) [%]	cell viability (Calu-3 [7]; 1 nM) [%]	cell viability (Calu-3 [7]; 10 nM) [%]	cell viability (Calu-3 [7]; 100 nM) [%]	cell viability (Calu-3 [7]; 1000 nM) [%]	cell viability (Calu-3 [7]; 10000 nM) [%]	cell viability (Caco-2 [8]; 1 nM) [%]	cell viability (Caco-2 [8]; 10 nM) [%]	cell viability (Caco-2 [8]; 100 nM) [%]	cell viability (Caco-2 [8]; 1000 nM) [%]	cell viability (Caco-2 [8]; 10000 nM) [%]	cell viability (U2OS [9]; 1 nM) [%]	cell viability (U2OS [9]; 10 nM) [%]	cell viability (U2OS [9]; 100 nM) [%]	cell viability (U2OS [9]; 1000 nM) [%]	cell viability (U2OS [9]; 10000 nM) [%]	cell viability (Vero E6 [10]; 1 nM) [%]	cell viability (Vero E6 [10]; 10 nM) [%]	cell viability (Vero E6 [10]; 100 nM) [%]	cell viability (Vero E6 [10]; 1000 nM) [%]	cell viability (Vero E6 [10]; 10000 nM) [%]	relative viability EC50 (HepG2 [11]) [µM]	relative viability EC50 (Calu-3 [12]) [µM]	relative viability EC50 (Caco-2 [13]) [µM]	relative viability EC50 (U2OS [14]) [µM]	relative viability EC50 (Vero E6 [15]) [µM]
CC(/C=C1\SC(=S)N(CC(=O)O)C1=O)=C\c1ccccc1 [epalrestat]	0	0	0	0	0	100	96.4	102	95.6	106	102	96.8	96.7	97.8	107	92.6	87.2	95.8	104	98.8	99.4	98.1	98.4	103	100	98.3	95.4	94.7	101	102	> 10	> 10	> 10	> 10	> 10
C=C1/C(=C\C=C2/CCC[C@]3(C)[C@@H]([C@H](C)/C=C/[C@H](C)C(C)(C)O)CC[C@@H]23)C[C@@H](O)C[C@@H]1O [ercalcitriol]	0.1	0	0	0	0	104	107	104	104	84.7	106	99.2	101	99	100	97.7	110	106	96.4	94.6	104	99.7	99.4	95.7	91.5	99	99.6	88.5	98.1	94.9	> 10	> 10	> 10	> 10	> 10
CC(=O)O[C@H]1Cc2ccccc2N(C(N)=O)c2ccccc21 [eslicarbazepine-acetate]	0	0	0	0	0	90.4	85.9	95.9	93.8	101	98.9	98.4	108	102	111	104	99.9	91.3	95.5	89	97.5	93.6	95.2	96.7	101	96.9	99.7	96.3	98.9	98.2	> 10	> 10	> 10	> 10	> 10
CC(O)(P(=O)(O)O)P(=O)(O)O [etidronic-acid]	0	0	0	0	0	92.3	105	105	100	94.6	93.2	103	109	92.1	105	103	91.5	103	98.2	104	102	97	98.6	103	102	92.7	91.1	96.1	90.1	95.8	> 10	> 10	> 10	> 10	> 10
O=S1(=O)c2cccc3cccc(c23)N1CCCN1CCN(c2ccc(F)cc2)CC1 [fananserin]	0	0	0	0	0	96.4	106	107	94	95.4	108	89.5	94.2	111	104	105	102	100	100	96.7	101	102	100	103	99.3	96.8	96.9	98.1	91.8	94.6	> 10	> 10	> 10	> 10	> 10
O=c1c(O)c(-c2ccc(O)c(O)c2)oc2cc(O)ccc12 [fisetin]	0	0.3	0	0	0	95	111	104	107	105	93.2	90.1	95.3	101	83.2	96.8	104	95.3	96.8	92.8	97.5	97.6	102	94.8	98	93.3	97.9	91.3	97.1	103	> 10	> 10	> 10	> 10	> 10
